These results are taken from ChEMBL document CHEMBL1130153, “Inhibition of melanoma cell binding to type IV collagen by analogs of cell adhesion regulator” (J Med Chem, 1997).

A short description of experiment [1]: Inhibition of melanoma cell adhesion to type IV collagen. The class given is functional, Homo sapiens.
Experiment [2] in a line: Inhibition of melanoma cell adhesion to type IV collagen;NE=no effect. The class given is functional, Homo sapiens.

Where a SMILES comes first, the peptide text is derived from it. [ ]: non-standard residue; d: D form. pY = N[C@@H](Cc1ccc(OP(=O)(O)O)cc1)C(=O)O

Consider `CC[C@H](C)[C@H](NC(=O)[C@H](CCC(=O)O)NC(=O)[C@@H](N)C(C)C)C(=O)N[C@@H](CC(C)C)C(=O)N[C@@H](Cc1ccc(OP(=O)(O)O)cc1)C(=O)O` (H-VEIL[pY]-OH), for which half-maximal inhibition in experiment [1] (IC50) was put at 10 µM. Same read-out and setting: the value for H-VEILY-OH was 90 µM.

H-YLIEV-OH: the IC50 result in experiment [2] is recorded as “Not Active”.
